Measured values from PubChem BioAssay AID248 (DTP/NCI, 2004).
Several values for one entry are separate records, joined by “and”; a condition that tells them apart may be missing. Equal entries are not always repeated. Toxic doses and inconclusive results are not listed. Rule as the data show it: active = T/C of 150% or more; inactive = T/C below 125%.

Test system: L1210 leukemia ip in BDF1 mice, survival T/C
Assay: NCI In Vivo Anticancer Drug Screen. Data for tumor model L1210 Leukemia (intraperitoneal) in B6D2F1 (BDF1) mice
Settings: endpoint: mean survival time, higher = longer survival
Outline: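 Read-out is survival time, reported as the treated-group measurement over the vehicle-control measurement.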

[1] = dose: 100.0 mg/kg/injection, schedule: Q04DX003 (ip), vehicle: saline
[2] = dose: 200.0 mg/kg/injection, schedule: Q04DX003 (ip), vehicle: saline
[3] = dose: 400.0 mg/kg/injection, schedule: Q04DX003 (ip), vehicle: saline
[4] = dose: 100.0 mg/kg/injection, schedule: Q01DX009 (ip), vehicle: Klucel (hydroxypropylcellulose) (HPC)
[5] = dose: 100.0 mg/kg/injection, schedule: Q04DX003 (ip), vehicle: saline with Tween-80
[6] = dose: 200.0 mg/kg/injection, schedule: Q04DX003 (ip), vehicle: saline with Tween-80
[7] = dose: 400.0 mg/kg/injection, schedule: Q04DX003 (ip), vehicle: saline with Tween-80
[8] = dose: 100.0 mg/kg/injection, schedule: Q01DX009 (ip), vehicle: saline with Tween-80
[9] = dose: 200.0 mg/kg/injection, schedule: Q01DX009 (ip), vehicle: saline with Tween-80
[10] = dose: 100.0 mg/kg/injection, schedule: Q01DX009 (ip), vehicle: saline
[11] = dose: 200.0 mg/kg/injection, schedule: Q01DX009 (ip), vehicle: saline
[12] = dose: 100.0 mg/kg/injection, schedule: Q04DX002 (ip), vehicle: Klucel (hydroxypropylcellulose) (HPC)
[13] = dose: 200.0 mg/kg/injection, schedule: Q04DX002 (ip), vehicle: Klucel (hydroxypropylcellulose) (HPC)
[14] = dose: 400.0 mg/kg/injection, schedule: Q04DX002 (ip), vehicle: Klucel (hydroxypropylcellulose) (HPC)
[15] = dose: 100.0 mg/kg/injection, schedule: Q01DX001 (ip), vehicle: saline
[16] = dose: 200.0 mg/kg/injection, schedule: Q01DX001 (ip), vehicle: saline
[17] = dose: 400.0 mg/kg/injection, schedule: Q01DX001 (ip), vehicle: saline
[18] = dose: 200.0 mg/kg/injection, schedule: Q01DX009 (ip), vehicle: Klucel (hydroxypropylcellulose) (HPC)

Measured: T/C

CC(C)c1ccc2c(c1)CCC1C2CCCC1(C)NCc1ccccc1 (stereo not given)
inactive: dose: 55.0 mg/kg/injection, schedule: Q01DX Z (ip), vehicle: methylcellulose (MC) 87 % of control

CNCC(O)c1cc(OC)c(OC)c(OC)c1 (stereo not given)
inactive: dose: 100.0 mg/kg/injection, schedule: Q04DX002 (ip), vehicle: saline 102 % of control | dose: 200.0 mg/kg/injection, schedule: Q04DX002 (ip), vehicle: saline 93 % of control | dose: 400.0 mg/kg/injection, schedule: Q04DX002 (ip), vehicle: saline 96 % of control

CCCC[n+]1cccc(C(N)=O)c1
inactive: [1] 100 % of control | [2] 100 % of control | [3] 89 % of control

N=C(N(O)C(=O)Nc1ccccc1)C(Cl)(Cl)Cl
inactive: dose: 25.0 mg/kg/injection, schedule: Q01DX009 (ip), vehicle: Klucel (hydroxypropylcellulose) (HPC) 98 % of control | dose: 50.0 mg/kg/injection, schedule: Q01DX009 (ip), vehicle: Klucel (hydroxypropylcellulose) (HPC) 100 % of control | [4] 104 % of control and 105 % of control

N=C(N)c1ccc(-c2[nH]c3cc(C(=N)N)ccc3c2-c2ccccc2)cc1
inactive: dose: 12.5 mg/kg/injection, schedule: Q04DX003 (ip), vehicle: saline 100 % of control and 110 % of control | dose: 25.0 mg/kg/injection, schedule: Q04DX003 (ip), vehicle: saline 100 % of control and 110 % of control | dose: 50.0 mg/kg/injection, schedule: Q04DX003 (ip), vehicle: saline 108 % of control and 112 % of control

CCOC(=O)c1c(Cl)cc(C)nc1C
inactive: [5] 93 % of control | [6] 101 % of control | [7] 95 % of control

CCOc1ccccc1NC(=S)NC(=O)CCc1ccccc1
inactive: [8] 102 % of control and 104 % of control | dose: 100.0 mg/kg/injection, schedule: Q04DX002 (ip), vehicle: saline with Tween-80 104 % of control | [5] 105 % of control | [9] 93 % of control and 108 % of control | dose: 200.0 mg/kg/injection, schedule: Q04DX002 (ip), vehicle: saline with Tween-80 98 % of control | [6] 97 % of control | dose: 400.0 mg/kg/injection, schedule: Q01DX009 (ip), vehicle: saline with Tween-80 97 % of control and 89 % of control | dose: 400.0 mg/kg/injection, schedule: Q04DX002 (ip), vehicle: saline with Tween-80 91 % of control | [7] 89 % of control

C=C(NC(=O)COc1ccccc1)C(=O)O
inactive: [10] 103 % of control | [1] 116 % of control | [11] 90 % of control | [2] 97 % of control | [3] 100 % of control

Cc1ccccc1NC(=O)Oc1ccc(C2CCCCC2)cc1
inactive: [12] 103 % of control | [13] 91 % of control | [14] 100 % of control

NC(=O)c1cc(I)cc(I)c1N
inactive: dose: 100.0 mg/kg/injection, schedule: Q01DX001 (ip), vehicle: saline with Tween-80 95 % of control | dose: 200.0 mg/kg/injection, schedule: Q01DX001 (ip), vehicle: saline with Tween-80 97 % of control | dose: 400.0 mg/kg/injection, schedule: Q01DX001 (ip), vehicle: saline with Tween-80 98 % of control

C=CC(=O)NCNC(=O)C=C
inactive: dose: 50.0 mg/kg/injection, schedule: Q04DX003 (ip), vehicle: carboxymethylcellulose (CMC) 100 % of control | [15] 97 % of control | dose: 100.0 mg/kg/injection, schedule: Q04DX003 (ip), vehicle: carboxymethylcellulose (CMC) 110 % of control | [16] 101 % of control | [17] 113 % of control

Cc1cc(C)c2ccc(SC#N)c-2c(C)c1
inactive: dose: 100.0 mg/kg/injection, schedule: Q01DX001 (ip), vehicle: carboxymethylcellulose (CMC) 106 % of control | dose: 200.0 mg/kg/injection, schedule: Q01DX001 (ip), vehicle: carboxymethylcellulose (CMC) 95 % of control | dose: 400.0 mg/kg/injection, schedule: Q01DX001 (ip), vehicle: carboxymethylcellulose (CMC) 101 % of control

COc1ccc(CN2CCCN(Cc3ccc(OC)cc3OC)C2c2ccccc2O)c(OC)c1
inactive: dose: 50.0 mg/kg/injection, schedule: Q01DX001 (ip), vehicle: saline 97 % of control | [15] 92 % of control | [16] 90 % of control | [17] 101 % of control

O=C(O)c1sc(C(=O)O)c(O)c1O
inactive: dose: 12.5 mg/kg/injection, schedule: Q01DX001 (ip), vehicle: saline with Tween-80 111 % of control | dose: 25.0 mg/kg/injection, schedule: Q01DX001 (ip), vehicle: saline with Tween-80 103 % of control | dose: 50.0 mg/kg/injection, schedule: Q01DX001 (ip), vehicle: saline with Tween-80 100 % of control

Nc1cc(Cl)cc2c1-c1c(Cl)cc(Cl)cc1C2O (stereo not given)
inactive: [4] 102 % of control | dose: 100.0 mg/kg/injection, schedule: Q04DX003 (ip), vehicle: Klucel (hydroxypropylcellulose) (HPC) 102 % of control | [18] 100 % of control | dose: 200.0 mg/kg/injection, schedule: Q04DX003 (ip), vehicle: Klucel (hydroxypropylcellulose) (HPC) 105 % of control | dose: 400.0 mg/kg/injection, schedule: Q04DX003 (ip), vehicle: Klucel (hydroxypropylcellulose) (HPC) 97 % of control

CCNC(=O)CCC(N)C(=O)O (stereo not given)
inactive: [10] 97 % of control | [1] 97 % of control | [11] 97 % of control | [2] 101 % of control | dose: 400.0 mg/kg/injection, schedule: Q01DX009 (ip), vehicle: saline 95 % of control | [3] 101 % of control

Cc1ccc(C(C)C)c(OCC(O)Cn2ccnc2)c1 (stereo not given)
inactive: dose: 20.0 mg/kg/injection, schedule: Q01DX001 (ip), vehicle: saline 103 % of control | dose: 40.0 mg/kg/injection, schedule: Q01DX001 (ip), vehicle: saline 101 % of control | dose: 80.0 mg/kg/injection, schedule: Q01DX001 (ip), vehicle: saline 88 % of control | [15] 94 % of control

C(=N\Nc1nc2ccccc2s1)/c1cccnc1
inactive: [4] 98 % of control | [18] 98 % of control | dose: 400.0 mg/kg/injection, schedule: Q01DX009 (ip), vehicle: Klucel (hydroxypropylcellulose) (HPC) 101 % of control

COc1cccc(OC)c1C(=O)O
inactive: [12] 100 % of control | [13] 111 % of control | [14] 100 % of control

CSCCC(C#N)c1ccccc1 (stereo not given)
inactive: dose: 50.0 mg/kg/injection, schedule: Q01DX009 (ip), vehicle: saline with Tween-80 93 % of control | [8] 104 % of control | [5] 103 % of control | [1] 103 % of control | [9] 110 % of control | [6] 97 % of control | [2] 97 % of control

NC(=O)NN=C1CCC(CC2CCCCC2)CC1 (stereo not given)
inactive: dose: 25.0 mg/kg/injection, schedule: Q04DX003 (ip), vehicle: saline with Tween-80 102 % of control | dose: 50.0 mg/kg/injection, schedule: Q04DX003 (ip), vehicle: saline with Tween-80 102 % of control

C1=CC2CCC1CC2c1ccccc1 (stereo not given)
inactive: [15] 104 % of control | [16] 105 % of control | [17] 114 % of control

CC(NC(=O)NCCCl)c1cccc([N+](=O)[O-])c1 (stereo not given)
inactive: [12] 94 % of control | [13] 105 % of control | [14] 119 % of control

O=C(O)c1n[nH]nc1[N+](=O)[O-]
inactive: dose: 75.0 mg/kg/injection, schedule: Q01DX001 (ip), vehicle: saline 96 % of control | dose: 150.0 mg/kg/injection, schedule: Q01DX001 (ip), vehicle: saline 105 % of control | dose: 300.0 mg/kg/injection, schedule: Q01DX001 (ip), vehicle: saline 98 % of control
